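48-hour exposure; five concentrations; linearly interpolated endpoints. GI50: concentration for 50% inhibition of growth. TGI: concentration producing complete growth inhibition.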
Experiments:
Experiment in all cases: NCI-60 cell line screen, 48 h
HOP-18 NSCLC = system: HOP-18 NSCLC
XF 498 CNS = system: XF 498 CNS
DLD-1 colon = system: DLD-1 colon
DMS 114 small cell lung = system: DMS 114 small cell lung
LXFL 529 NSCLC = system: LXFL 529 NSCLC
DMS 273 small cell lung = system: DMS 273 small cell lung
M19-MEL melanoma = system: M19-MEL melanoma
PC-3 prostate = system: PC-3 prostate
MDA-MB-435 = system: MDA-MB-435
DU-145 prostate = system: DU-145 prostate

| Structure (SMILES) | TGI (HOP-18 NSCLC) | TGI (XF 498 CNS) | TGI (DLD-1 colon) | TGI (DMS 114 small cell lung) | TGI (LXFL 529 NSCLC) | TGI (DMS 273 small cell lung) | TGI (M19-MEL melanoma) | GI50 (HOP-18 NSCLC) | GI50 (XF 498 CNS) | GI50 (DLD-1 colon) | GI50 (DMS 114 small cell lung) | GI50 (LXFL 529 NSCLC) | GI50 (M19-MEL melanoma) | TGI (PC-3 prostate) | TGI (MDA-MB-435) | TGI (DU-145 prostate) | GI50 (PC-3 prostate) | GI50 (MDA-MB-435) |
| --- | --- | --- | --- | --- | --- | --- | --- | --- | --- | --- | --- | --- | --- | --- | --- | --- | --- | --- |
| CCC1CN2CCc3cc(OC)c(OC)cc3C2CC1CC1c2cc(OC)c(OC)cc2CCN1C(=O)CNC(=O)OC(C)(C)C (stereo unspecified) | 70.7 µM | 28.9 µM | 36.9 µM | 20 µM | 36.2 µM | 37.8 µM | 61.2 µM |  |  |  |  |  |  |  |  |  |  |  |
| FC(F)(F)c1ccc2nc(Nc3ccc(Cl)c(Cl)c3)c(-c3ccccc3)nc2c1 | > 100 µM | > 100 µM |  |  | > 100 µM | > 100 µM | > 100 µM |  |  |  |  |  |  |  |  |  |  |  |
| C=C(N=[N+]=[N-])c1cn(C2CC(O)C(CO)O2)c(=O)[nH]c1=O (stereo unspecified) | > 100 µM | > 100 µM | > 100 µM | > 100 µM | > 100 µM | > 100 µM | > 100 µM |  |  |  |  |  |  |  |  |  |  |  |
| O=c1[nH]cc(OCC(F)(F)F)c(=O)[nH]1 | > 100 µM | > 100 µM | > 100 µM | > 100 µM | > 100 µM | > 100 µM | > 100 µM |  |  |  |  |  |  |  |  |  |  |  |
| Cc1cccc(C(C)(C)C)c1NC(=O)C(=O)C(c1cnc2ccccc2n1)[N+](=O)[O-] (stereo unspecified) | > 100 µM | > 100 µM | > 100 µM | > 100 µM | > 100 µM | > 100 µM | > 100 µM |  |  |  |  |  |  |  |  |  |  |  |
| O=C1CC2C(=O)N(Cc3ccccc3)C1C(S(=O)(=O)c1ccccc1)C2S(=O)(=O)c1ccccc1 (stereo unspecified) | 13.8 µM | 3.53 µM | 3.13 µM | 2.72 µM | 2.61 µM | 18.6 µM | 4.09 µM |  |  |  |  |  |  |  |  |  |  |  |
| CN(C)C(=O)C1CCC(=C2C(=O)OC(C)(C)OC2=O)N1C (stereo unspecified) | > 100 µM | > 100 µM | > 100 µM | > 100 µM | > 100 µM | > 100 µM | > 100 µM |  |  |  |  |  |  |  |  |  |  |  |
| COC(=O)C(=O)C(C(=O)C=C(C)C)C(=O)C(=O)Nc1cccc(C(C)=O)c1 (stereo unspecified) | > 100 µM | > 100 µM | > 100 µM | > 100 µM | > 100 µM | > 100 µM | > 100 µM |  |  |  |  |  |  |  |  |  |  |  |
| CCCCCCCCCCCCC(=O)[O-].CCCCCCCCCCCCC(=O)[O-].CCCCCCCCCCCCC(=O)[O-].CCCCCCCCCCCCC(=O)[O-].[Mo+2].[Mo+2] | 34.9 µM | 23.4 µM | 23.3 µM | 26 µM | 22.8 µM |  | > 100 µM | 20.6 µM | 11.3 µM | 7.9 µM | 6.62 µM | 10.7 µM | 18.7 µM |  |  |  |  |  |
| COc1ccc2c(C(=O)O)cc3cc(OC)c(OC)cc3c2c1 | > 100 µM | > 100 µM | > 100 µM |  | > 100 µM | > 100 µM | > 100 µM |  |  |  |  |  |  |  |  |  |  |  |
| CCO[C@@H]1C2C=CC(C2)[C@H]1[N+](=O)[O-] (stereo partly specified) | > 100 µM | > 100 µM | > 100 µM | > 100 µM | > 100 µM | > 100 µM | > 100 µM |  |  |  |  |  |  |  |  |  |  |  |
| COC(=O)C(Cc1nc2ccc(Cl)cc2[nH]c1=O)C(=O)C(=O)Nc1ccccc1[N+](=O)[O-] (stereo unspecified) | > 100 µM | > 100 µM | > 100 µM | > 100 µM | > 100 µM | > 100 µM | > 100 µM |  |  |  |  |  |  |  |  |  |  |  |
| CCSc1nc(COC(=O)NC)c(COC(=O)NC)n1C | > 100 µM |  | > 100 µM | > 76.2 µM | > 54.8 µM | > 100 µM | > 79.9 µM |  |  |  |  |  |  | > 100 µM | > 100 µM | > 23.2 µM |  |  |
| CN(C)CCNC(=O)c1ccc(Cl)c2c(Nc3ccc(S(N)(=O)=O)cc3)c3ccccc3nc12 | 5.92 µM | 2.86 µM | 8.85 µM | 4.63 µM | 11.2 µM | 8.09 µM | 4.52 µM |  |  |  |  |  |  |  |  |  |  |  |
| CC(=O)NC(CCCN(Cc1ccccc1)C(=O)N(CCCl)N=O)C(=O)NCc1ccccc1 (stereo unspecified) | > 100 µM | > 60.4 µM | > 100 µM | > 100 µM | > 100 µM | > 100 µM |  |  |  |  |  |  |  |  |  |  |  |  |
| N#Cc1ccccc1NC(=O)c1ccccc1 | > 100 µM | > 100 µM | > 100 µM |  |  | > 100 µM | > 100 µM |  |  |  |  |  |  |  |  |  |  |  |
| C=CCc1ccc(O)c(-c2cc(C3Oc4c(-c5cc(CC=C)ccc5O)cc(O)cc4[C@@H]3CO)ccc2O)c1 (stereo partly specified) | > 100 µM |  | 38.6 µM | 28.1 µM | 52.5 µM | 44.5 µM | > 100 µM |  |  |  |  |  |  |  |  |  |  |  |
| CC(=O)c1cccc(NCn2nnc3ccccc32)c1 | > 100 µM | > 100 µM | > 100 µM | > 100 µM | > 100 µM | > 100 µM | > 100 µM |  |  |  |  |  |  |  |  |  |  |  |
| CN(C)c1ccc(N=Nc2c([O-])ccc3ccccc23)cc1.[C-]#[O+].[C-]#[O+].[Ir] | 37.2 µM | 33.3 µM | 47.8 µM | 36 µM | 31.2 µM |  | 50.2 µM | 17.2 µM | 17 µM | 22.5 µM | 20.6 µM | 17.2 µM | 20.3 µM | 34.5 µM | 46.1 µM |  | 17.7 µM | 18.8 µM |
| Clc1ccc(CN2COc3c(cc(Cl)c4cccnc34)C2)cc1 | 16.4 µM | 7.24 µM | 13.6 µM | 3.73 µM | 2.71 µM | 3.53 µM | 6.06 µM |  |  |  |  |  |  |  |  |  |  |  |
| O=C1C(=O)N(C2C3CC4CC(C3)CC2C4)C(=O)C(=O)C1c1nc2ccccc2o1 (stereo unspecified) | > 100 µM | > 100 µM | 92.9 µM | 44.7 µM | > 100 µM | > 100 µM | > 100 µM |  |  |  |  |  |  |  |  |  |  |  |

Source: PubChem BioAssay (NCI)
